Experiments:
Test in all cases: KINOMEscan competition binding
Conditions in all cases: compound 10.0 µM
PIK3CD (human) = PIK3CD (human) (UniProt O00329)
ULK2 (human) = ULK2 (human) (UniProt Q8IYT8)
EPHA6 (human) = EPHA6 (human) (UniProt Q9UF33)
MARK3 (human) = MARK3 (human) (UniProt P27448)
STK38L (human) = STK38L (human) (UniProt Q9Y2H1)
MERTK (human) = MERTK (human) (UniProt Q12866)
EPHA4 (human) = EPHA4 (human) (UniProt P54764)
PRKD2 (human) = PRKD2 (human) (UniProt Q9BZL6)
PTK2B (human) = PTK2B (human) (UniProt Q14289)
STK33 (human) = STK33 (human) (UniProt Q9BYT3)
ITK (human) = ITK (human) (UniProt Q08881)
PIK3CB (human) = PIK3CB (human) (UniProt P42338)
MARK4 (human) = MARK4 (human) (UniProt Q96L34)
Chain of MARK4 (human) (Q96L34 whole entry, looked up): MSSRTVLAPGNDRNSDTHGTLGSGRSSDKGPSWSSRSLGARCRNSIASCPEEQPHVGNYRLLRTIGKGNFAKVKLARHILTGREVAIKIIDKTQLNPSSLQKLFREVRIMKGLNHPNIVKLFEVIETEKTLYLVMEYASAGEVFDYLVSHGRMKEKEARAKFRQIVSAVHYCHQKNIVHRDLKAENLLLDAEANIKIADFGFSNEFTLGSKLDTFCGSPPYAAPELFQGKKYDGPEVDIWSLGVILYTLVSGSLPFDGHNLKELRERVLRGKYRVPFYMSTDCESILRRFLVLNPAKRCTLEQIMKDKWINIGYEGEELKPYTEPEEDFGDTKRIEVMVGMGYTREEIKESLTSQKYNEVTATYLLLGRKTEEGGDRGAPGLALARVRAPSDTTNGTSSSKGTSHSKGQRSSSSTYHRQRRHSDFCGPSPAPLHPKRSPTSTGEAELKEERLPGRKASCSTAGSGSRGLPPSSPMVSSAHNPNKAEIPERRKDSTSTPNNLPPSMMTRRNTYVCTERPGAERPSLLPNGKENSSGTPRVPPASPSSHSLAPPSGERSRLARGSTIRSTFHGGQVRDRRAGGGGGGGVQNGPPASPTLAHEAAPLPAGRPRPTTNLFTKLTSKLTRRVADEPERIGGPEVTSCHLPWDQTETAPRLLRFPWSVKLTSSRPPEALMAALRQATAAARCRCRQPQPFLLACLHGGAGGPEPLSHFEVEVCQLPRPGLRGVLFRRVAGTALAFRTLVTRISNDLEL

TLK2 (human) = TLK2 (human) (UniProt Q86UE8)
CDC42BPB (human) = CDC42BPB (human) (UniProt Q9Y5S2)
AKT2 (human) = AKT2 (human) (UniProt P31751)
ERBB4 (human) = ERBB4 (human) (UniProt Q15303)
Chain of ERBB4 (human) (Q15303 whole entry, looked up): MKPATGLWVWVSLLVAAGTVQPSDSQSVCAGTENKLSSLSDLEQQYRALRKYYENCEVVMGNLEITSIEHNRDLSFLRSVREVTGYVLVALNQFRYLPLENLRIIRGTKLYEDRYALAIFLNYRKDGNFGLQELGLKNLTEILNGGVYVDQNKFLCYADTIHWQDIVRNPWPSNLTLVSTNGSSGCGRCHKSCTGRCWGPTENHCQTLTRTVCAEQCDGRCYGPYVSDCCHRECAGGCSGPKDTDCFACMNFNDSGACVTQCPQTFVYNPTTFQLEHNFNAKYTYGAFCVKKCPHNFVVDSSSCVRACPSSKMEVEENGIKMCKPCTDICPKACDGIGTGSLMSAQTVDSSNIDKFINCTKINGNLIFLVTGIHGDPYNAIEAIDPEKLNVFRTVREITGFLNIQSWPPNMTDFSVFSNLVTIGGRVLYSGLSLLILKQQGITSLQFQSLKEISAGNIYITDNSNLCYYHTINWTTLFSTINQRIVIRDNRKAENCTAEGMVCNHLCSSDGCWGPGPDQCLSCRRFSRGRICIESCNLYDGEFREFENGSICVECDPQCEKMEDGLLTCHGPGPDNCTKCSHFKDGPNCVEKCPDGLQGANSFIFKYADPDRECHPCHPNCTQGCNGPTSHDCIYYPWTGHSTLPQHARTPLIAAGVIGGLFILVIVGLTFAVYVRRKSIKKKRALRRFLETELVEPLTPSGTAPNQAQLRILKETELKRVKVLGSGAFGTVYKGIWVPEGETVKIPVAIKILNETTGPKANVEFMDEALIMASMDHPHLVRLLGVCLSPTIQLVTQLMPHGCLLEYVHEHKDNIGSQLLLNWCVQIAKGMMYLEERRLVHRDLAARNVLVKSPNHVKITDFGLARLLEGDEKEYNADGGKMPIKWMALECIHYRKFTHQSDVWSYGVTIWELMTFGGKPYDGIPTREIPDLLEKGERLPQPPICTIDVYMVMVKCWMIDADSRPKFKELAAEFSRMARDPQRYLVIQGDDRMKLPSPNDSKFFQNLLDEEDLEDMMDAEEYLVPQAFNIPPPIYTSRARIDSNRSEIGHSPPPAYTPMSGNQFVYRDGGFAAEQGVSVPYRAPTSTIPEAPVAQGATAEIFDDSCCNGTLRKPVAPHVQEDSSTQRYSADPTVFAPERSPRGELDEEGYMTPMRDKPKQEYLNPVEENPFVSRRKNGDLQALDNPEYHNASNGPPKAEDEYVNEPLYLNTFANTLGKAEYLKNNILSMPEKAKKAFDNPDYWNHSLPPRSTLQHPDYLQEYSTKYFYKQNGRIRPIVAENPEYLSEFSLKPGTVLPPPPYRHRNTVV

STK25 (human) = STK25 (human) (UniProt O00506)
Chain of STK25 (human) (O00506 whole entry, looked up): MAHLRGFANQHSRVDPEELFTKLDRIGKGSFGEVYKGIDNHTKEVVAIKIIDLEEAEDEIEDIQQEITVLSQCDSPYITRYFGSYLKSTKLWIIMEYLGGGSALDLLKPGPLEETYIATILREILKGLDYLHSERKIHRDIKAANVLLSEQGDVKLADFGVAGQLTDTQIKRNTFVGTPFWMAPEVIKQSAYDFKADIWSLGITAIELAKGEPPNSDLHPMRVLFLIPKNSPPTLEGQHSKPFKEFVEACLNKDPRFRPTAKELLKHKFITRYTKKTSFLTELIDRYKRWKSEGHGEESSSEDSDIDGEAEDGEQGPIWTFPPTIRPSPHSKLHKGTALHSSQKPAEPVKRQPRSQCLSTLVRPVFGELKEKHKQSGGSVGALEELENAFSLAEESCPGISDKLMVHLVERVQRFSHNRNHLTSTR

PKN1 (human) = PKN1 (human) (UniProt Q16512)
LTK (human) = LTK (human) (UniProt P29376)
PIP4K2B (human) = PIP4K2B (human) (UniProt P78356)
SYK (human) = SYK (human) (UniProt P43405)
CDK5 (human) = CDK5 (human) (UniProt Q00535)
PLK3 (human) = PLK3 (human) (UniProt Q9H4B4)
ROS1 (human) = ROS1 (human) (UniProt P08922)
CSNK1G2 (human) = CSNK1G2 (human) (UniProt P78368)
CDK3 (human) = CDK3 (human) (UniProt Q00526)
Chain of CDK3 (human) (Q00526 whole entry, looked up): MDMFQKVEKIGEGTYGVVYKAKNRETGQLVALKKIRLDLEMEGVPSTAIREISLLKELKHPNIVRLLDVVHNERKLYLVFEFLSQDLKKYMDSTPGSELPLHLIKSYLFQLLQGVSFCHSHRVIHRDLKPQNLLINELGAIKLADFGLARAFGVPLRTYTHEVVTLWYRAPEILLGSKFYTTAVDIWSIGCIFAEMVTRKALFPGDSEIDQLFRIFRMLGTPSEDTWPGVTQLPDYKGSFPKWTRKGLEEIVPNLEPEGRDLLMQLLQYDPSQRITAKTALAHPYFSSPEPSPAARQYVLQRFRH

FGFR2 (human) = FGFR2 (human) (UniProt P21802)
Chain of FGFR2 (human) (P21802 whole entry, looked up): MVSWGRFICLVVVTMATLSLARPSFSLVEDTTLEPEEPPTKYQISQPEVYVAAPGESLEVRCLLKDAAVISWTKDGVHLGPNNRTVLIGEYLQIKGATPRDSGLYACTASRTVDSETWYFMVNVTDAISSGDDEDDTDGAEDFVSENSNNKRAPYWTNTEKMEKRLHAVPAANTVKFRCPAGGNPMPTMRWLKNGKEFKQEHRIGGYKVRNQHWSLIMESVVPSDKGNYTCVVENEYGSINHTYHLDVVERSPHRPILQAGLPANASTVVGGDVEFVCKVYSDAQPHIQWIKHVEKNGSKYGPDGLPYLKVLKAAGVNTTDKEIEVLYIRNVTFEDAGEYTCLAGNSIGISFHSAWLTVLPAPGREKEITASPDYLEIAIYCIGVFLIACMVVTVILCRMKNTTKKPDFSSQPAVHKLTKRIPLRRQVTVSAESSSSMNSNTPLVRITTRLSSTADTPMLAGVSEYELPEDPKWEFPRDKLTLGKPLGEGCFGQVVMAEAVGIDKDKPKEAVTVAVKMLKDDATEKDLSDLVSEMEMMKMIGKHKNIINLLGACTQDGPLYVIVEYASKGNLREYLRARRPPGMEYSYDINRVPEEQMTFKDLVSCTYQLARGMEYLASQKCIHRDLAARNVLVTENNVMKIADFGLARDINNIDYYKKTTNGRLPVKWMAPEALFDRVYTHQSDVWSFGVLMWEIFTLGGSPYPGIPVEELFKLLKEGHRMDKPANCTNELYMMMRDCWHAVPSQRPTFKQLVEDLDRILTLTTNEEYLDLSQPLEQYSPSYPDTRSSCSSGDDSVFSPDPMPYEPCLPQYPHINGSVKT

LATS2 (human) = LATS2 (human) (UniProt Q9NRM7)
CLK3 (human) = CLK3 (human) (UniProt P49761)
MLTK (human) = MLTK (human) (UniProt Q9NYL2)
RPS6KA6 KD1 (human) = RPS6KA6 KD1 (human) (UniProt Q9UK32)
STK36 (human) = STK36 (human) (UniProt Q9NRP7)
TBK1 (human) = TBK1 (human) (UniProt Q9UHD2)
GRK1 (human) = GRK1 (human) (UniProt Q15835)
GRK7 (human) = GRK7 (human) (UniProt Q8WTQ7)

Chain of STK38L (human) (Q9Y2H1 whole entry, looked up): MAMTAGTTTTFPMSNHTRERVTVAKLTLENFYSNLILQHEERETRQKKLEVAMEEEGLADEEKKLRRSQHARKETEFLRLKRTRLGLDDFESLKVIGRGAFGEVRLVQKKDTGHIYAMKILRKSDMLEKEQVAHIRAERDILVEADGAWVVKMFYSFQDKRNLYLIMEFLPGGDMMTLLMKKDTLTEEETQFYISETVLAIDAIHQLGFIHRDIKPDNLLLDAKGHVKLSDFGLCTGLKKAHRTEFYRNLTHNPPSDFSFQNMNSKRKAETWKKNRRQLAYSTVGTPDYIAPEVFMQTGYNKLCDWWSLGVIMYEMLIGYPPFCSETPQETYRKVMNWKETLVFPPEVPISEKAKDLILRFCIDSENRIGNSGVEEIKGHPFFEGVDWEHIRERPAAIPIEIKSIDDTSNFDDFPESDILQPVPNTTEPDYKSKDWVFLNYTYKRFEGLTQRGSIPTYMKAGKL
Chain of EPHA4 (human) (P54764 whole entry, looked up): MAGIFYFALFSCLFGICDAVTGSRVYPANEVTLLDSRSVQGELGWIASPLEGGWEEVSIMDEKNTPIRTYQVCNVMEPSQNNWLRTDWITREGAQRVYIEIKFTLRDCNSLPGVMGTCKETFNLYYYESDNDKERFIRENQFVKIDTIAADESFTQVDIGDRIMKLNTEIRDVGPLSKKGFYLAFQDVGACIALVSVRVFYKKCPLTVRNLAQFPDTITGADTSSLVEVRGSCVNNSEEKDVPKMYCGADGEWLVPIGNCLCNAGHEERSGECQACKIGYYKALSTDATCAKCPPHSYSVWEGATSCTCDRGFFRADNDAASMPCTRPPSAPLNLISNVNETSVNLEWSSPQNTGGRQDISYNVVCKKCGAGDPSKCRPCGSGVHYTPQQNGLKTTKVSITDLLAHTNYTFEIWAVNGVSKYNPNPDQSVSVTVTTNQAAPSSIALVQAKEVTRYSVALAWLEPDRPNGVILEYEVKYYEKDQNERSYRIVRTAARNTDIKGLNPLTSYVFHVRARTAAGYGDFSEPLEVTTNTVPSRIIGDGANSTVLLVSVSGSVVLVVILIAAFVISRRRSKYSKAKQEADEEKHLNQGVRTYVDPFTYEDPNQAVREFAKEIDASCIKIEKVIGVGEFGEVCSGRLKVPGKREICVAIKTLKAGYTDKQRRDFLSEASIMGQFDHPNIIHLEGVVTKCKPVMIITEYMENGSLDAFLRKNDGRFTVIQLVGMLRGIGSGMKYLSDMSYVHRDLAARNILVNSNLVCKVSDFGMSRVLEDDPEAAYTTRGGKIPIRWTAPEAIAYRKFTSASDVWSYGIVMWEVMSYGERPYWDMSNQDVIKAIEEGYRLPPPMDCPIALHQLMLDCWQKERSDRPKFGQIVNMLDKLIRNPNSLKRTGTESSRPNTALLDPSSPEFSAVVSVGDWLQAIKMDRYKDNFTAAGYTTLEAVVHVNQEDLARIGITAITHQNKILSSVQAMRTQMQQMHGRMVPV

kinase still bound, per cent of control (EPHA6 (human))	kinase still bound, per cent of control (MARK3 (human))	kinase still bound, per cent of control (STK38L (human))	kinase still bound, per cent of control (MERTK (human))	kinase still bound, per cent of control (EPHA4 (human))	kinase still bound, per cent of control (PRKD2 (human))	kinase still bound, per cent of control (STK33 (human))	kinase still bound, per cent of control (ITK (human))	kinase still bound, per cent of control (MARK4 (human))	kinase still bound, per cent of control (TLK2 (human))	kinase still bound, per cent of control (CDC42BPB (human))	kinase still bound, per cent of control (ERBB4 (human))	kinase still bound, per cent of control (STK25 (human))	kinase still bound, per cent of control (PKN1 (human))	kinase still bound, per cent of control (LTK (human))	kinase still bound, per cent of control (PIP4K2B (human))	kinase still bound, per cent of control (SYK (human))	kinase still bound, per cent of control (PLK3 (human))	kinase still bound, per cent of control (ROS1 (human))	kinase still bound, per cent of control (CSNK1G2 (human))	SMILES	also measured
29%	13%	15%	0.25%	100%	100%	1.4%	0.15%	4%	100%	100%	100%	100%	0%	0%	3.8%	2.6%	100%	0.85%	3.1%	CNC(=O)c1ccc(Nc2cc(Nc3ccccc3S(=O)(=O)C(C)C)c3cc[nH]c3n2)nc1	kinase still bound, per cent of control (PIK3CD (human)): 100%; kinase still bound, per cent of control (ULK2 (human)): 9.1%; kinase still bound, per cent of control (PTK2B (human)): 0.1%; kinase still bound, per cent of control (PIK3CB (human)): 100%; kinase still bound, per cent of control (AKT2 (human)): 100%; kinase still bound, per cent of control (CDK5 (human)): 28%; kinase still bound, per cent of control (CDK3 (human)): 100%; kinase still bound, per cent of control (FGFR2 (human)): 25%; kinase still bound, per cent of control (LATS2 (human)): 100%; kinase still bound, per cent of control (CLK3 (human)): 2.8%; kinase still bound, per cent of control (MLTK (human)): 100%; kinase still bound, per cent of control (RPS6KA6 KD1 (human)): 29%; kinase still bound, per cent of control (STK36 (human)): 100%
100%	100%	100%	100%	100%	100%	100%	100%	100%	100%	100%	100%	100%	100%	100%	100%	100%	100%	100%	100%	CS(=O)(=O)N1CCN(Cc2cc3nc(-c4cccc5[nH]ncc45)nc(N4CCOCC4)c3s2)CC1	kinase still bound, per cent of control (PIK3CD (human)): 5.2%; kinase still bound, per cent of control (ULK2 (human)): 100%; kinase still bound, per cent of control (PTK2B (human)): 100%; kinase still bound, per cent of control (TBK1 (human)): 100%; kinase still bound, per cent of control (PIK3CB (human)): 0.1%; kinase still bound, per cent of control (GRK1 (human)): 100%; kinase still bound, per cent of control (AKT2 (human)): 100%; kinase still bound, per cent of control (GRK7 (human)): 100%; kinase still bound, per cent of control (CDK5 (human)): 100%; kinase still bound, per cent of control (CDK3 (human)): 100%; kinase still bound, per cent of control (FGFR2 (human)): 100%; kinase still bound, per cent of control (LATS2 (human)): 100%; kinase still bound, per cent of control (MLTK (human)): 100%; kinase still bound, per cent of control (RPS6KA6 KD1 (human)): 100%; kinase still bound, per cent of control (STK36 (human)): 100%
100%	100%	100%	100%	100%	100%	100%	100%	100%	100%	100%	100%	9.4%	100%	100%	100%	100%	100%	100%	100%	CCN(CC)CCCCNc1ncc2cc(-c3cc(OC)cc(OC)c3)c(NC(=O)NC(C)(C)C)nc2n1	kinase still bound, per cent of control (PTK2B (human)): 100%; kinase still bound, per cent of control (AKT2 (human)): 100%; kinase still bound, per cent of control (CDK5 (human)): 100%; kinase still bound, per cent of control (CDK3 (human)): 100%; kinase still bound, per cent of control (LATS2 (human)): 100%; kinase still bound, per cent of control (CLK3 (human)): 100%; kinase still bound, per cent of control (MLTK (human)): 100%; kinase still bound, per cent of control (RPS6KA6 KD1 (human)): 100%; kinase still bound, per cent of control (STK36 (human)): 100%
100%	100%	100%	100%	100%	100%	31%	16%	100%	100%	100%	2.2%	100%	100%	27%	100%	100%	100%	100%	100%	C=CC(=O)Nc1ccc(CN(C(=O)Nc2c(Cl)c(OC)cc(OC)c2Cl)c2cc(Nc3ccc(N4CCN(C)CC4)cc3)ncn2)cc1	kinase still bound, per cent of control (PIK3CD (human)): 100%; kinase still bound, per cent of control (ULK2 (human)): 100%; kinase still bound, per cent of control (PTK2B (human)): 100%; kinase still bound, per cent of control (PIK3CB (human)): 100%; kinase still bound, per cent of control (AKT2 (human)): 100%; kinase still bound, per cent of control (CDK5 (human)): 100%; kinase still bound, per cent of control (CDK3 (human)): 100%; kinase still bound, per cent of control (FGFR2 (human)): 1.9%; kinase still bound, per cent of control (LATS2 (human)): 100%; kinase still bound, per cent of control (CLK3 (human)): 100%; kinase still bound, per cent of control (MLTK (human)): 100%; kinase still bound, per cent of control (RPS6KA6 KD1 (human)): 100%; kinase still bound, per cent of control (STK36 (human)): 100%

SMILES	kinase still bound, per cent of control (EPHA6 (human))	kinase still bound, per cent of control (MARK3 (human))	kinase still bound, per cent of control (STK38L (human))	kinase still bound, per cent of control (MERTK (human))	kinase still bound, per cent of control (EPHA4 (human))	kinase still bound, per cent of control (PRKD2 (human))	kinase still bound, per cent of control (STK33 (human))	kinase still bound, per cent of control (ITK (human))	kinase still bound, per cent of control (MARK4 (human))	kinase still bound, per cent of control (TLK2 (human))	kinase still bound, per cent of control (CDC42BPB (human))	kinase still bound, per cent of control (ERBB4 (human))	kinase still bound, per cent of control (STK25 (human))	kinase still bound, per cent of control (PKN1 (human))	kinase still bound, per cent of control (LTK (human))	kinase still bound, per cent of control (PIP4K2B (human))	kinase still bound, per cent of control (SYK (human))	kinase still bound, per cent of control (PLK3 (human))	kinase still bound, per cent of control (ROS1 (human))	kinase still bound, per cent of control (CSNK1G2 (human))	also measured
Cc1n[nH]c2ccc(-c3cncc(OC[C@@H](N)Cc4c[nH]c5ccccc45)c3)cc12	100%	9.4%	100%	33%	100%	0%	2.6%	100%	100%	100%	1%	100%	100%	0%	100%	5.4%	100%	100%	100%	0.65%	kinase still bound, per cent of control (PIK3CD (human)): 100%; kinase still bound, per cent of control (ULK2 (human)): 12%; kinase still bound, per cent of control (PIK3CB (human)): 100%; kinase still bound, per cent of control (CDK3 (human)): 22%; kinase still bound, per cent of control (FGFR2 (human)): 100%; kinase still bound, per cent of control (LATS2 (human)): 0%; kinase still bound, per cent of control (CLK3 (human)): 0%; kinase still bound, per cent of control (MLTK (human)): 100%; kinase still bound, per cent of control (RPS6KA6 KD1 (human)): 100%; kinase still bound, per cent of control (STK36 (human)): 100%

From the kinase profiling compilation of Christmann-Franck et al. (2016)
